Source: ChEMBL document CHEMBL1201862, “PubChem BioAssay data set” (2004)
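Grown in 96-well plates, cells were treated for 48 hours with each compound at five concentrations. Insufficient inhibition: endpoint recorded as highest concentration tested. The concentration for 50% growth inhibition is given as GI50.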 Activity calls are given as the source filed them. Cut-off read from the data, not from the text of the source: active = GI50 up to about 1.1 µM and inactive = higher.

Key:
Assay in all cases: DTP human tumour cell line panel, 48 h
[1] = test system: SF-268
[2] = test system: MDA-MB-231
[3] = test system: 786-0
[4] = test system: OVCAR-3
[5] = test system: HCC 2998
[6] = test system: MDA-N
[7] = test system: Malme-3M
[8] = test system: ACHN
[9] = test system: UACC-62
[10] = test system: HOP-62
[11] = test system: IGROV-1
[12] = test system: UACC-257
[13] = test system: SF-295
[14] = test system: NCI-H460
[15] = test system: CAKI-1
[16] = test system: COLO 205
[17] = test system: NCI-H23
[18] = test system: OVCAR-4
[19] = test system: MCF7
[20] = test system: M14
[21] = test system: A498
[22] = test system: RXF 393
[23] = test system: SNB-75
[24] = test system: SW-620
[25] = test system: LOX IMVI
[26] = test system: A549
[27] = test system: HL-60
[28] = test system: KM12
[29] = test system: HCT-116
[30] = test system: T47D
[31] = test system: NCI-H522
[32] = test system: DU-145
[33] = test system: HCT-15
[34] = test system: SF-539
[35] = test system: K562
[36] = test system: BT-549
[37] = test system: TK-10
[38] = test system: RPMI-8226
[39] = test system: OVCAR-5
[40] = test system: Hs-578T
[41] = test system: U-251
[42] = test system: HT-29
[43] = test system: SK-OV-3
[44] = test system: PC-3
[45] = test system: MOLT-4
[46] = test system: MDA-MB-435
[47] = test system: OVCAR-8
[48] = test system: NCI-H226
[49] = test system: UO-31
[50] = test system: EKVX
[51] = test system: NCI/ADR-RES
[52] = test system: SN12C
[53] = test system: SK-MEL-28
[54] = test system: HOP-92
[55] = test system: SNB-19
[56] = test system: SK-MEL-5
[57] = test system: SK-MEL-2
[58] = test system: CCRF-CEM
[59] = test system: SR

Q: How did the GI50 [1] turn out when `CN(C)CCNc1nc2ccccc2c2c1CCCC2` was run?
A: Its GI50 is 32.1 µM (inactive).

Q: What about the GI50 [2] of the same molecule?
A: Its GI50 is 14.7 µM (inactive).

Q: And the GI50 [3]?
A: The GI50 was 16.4 µM (inactive).

Q: And the GI50 [4]?
A: Its GI50 is 30.8 µM (inactive).

Q: What about the GI50 [5] of the same molecule?
A: Its GI50 is 12.5 µM (inactive).

Q: And the GI50 [6]?
A: The GI50 was 16.1 µM (inactive).

Q: And the GI50 [7]?
A: The GI50 was 16.3 µM (inactive).

Q: What about the GI50 [8] of the same molecule?
A: The GI50 was 23.9 µM (inactive).

Q: And the GI50 [9]?
A: Its GI50 is 16.4 µM (inactive).

Q: What about the GI50 [10] of the same molecule?
A: The GI50 was 16.5 µM (inactive).

Q: What about the GI50 [11] of the same molecule?
A: The GI50 was 17.2 µM (inactive).

Q: And the GI50 [12]?
A: The GI50 was 15.1 µM (inactive).

Q: And the GI50 [13]?
A: Its GI50 is 15.9 µM (inactive).

Q: And the GI50 [14]?
A: Its GI50 is 16 µM (inactive).

Q: And the GI50 [15]?
A: Its GI50 is 16.9 µM (inactive).

Q: And the GI50 [16]?
A: Its GI50 is 22.9 µM (inactive).

Q: What about the GI50 [17] of the same molecule?
A: Its GI50 is 33.3 µM (inactive).

Q: And the GI50 [18]?
A: The GI50 was 48.9 µM (inactive).

Q: What about the GI50 [19] of the same molecule?
A: Its GI50 is 14.8 µM (inactive).

Q: And the GI50 [20]?
A: Its GI50 is 16.5 µM (inactive).

Q: And the GI50 [21]?
A: The GI50 was 17.2 µM (inactive).

Q: And the GI50 [22]?
A: Its GI50 is 8.65 µM (inactive).

Q: What about the GI50 [23] of the same molecule?
A: The GI50 was 15.7 µM (inactive).

Q: What about the GI50 [24] of the same molecule?
A: Its GI50 is 26.2 µM (inactive).

Q: What about the GI50 [25] of the same molecule?
A: The GI50 was 17.8 µM (inactive).

Q: What about the GI50 [26] of the same molecule?
A: The GI50 was 32.6 µM (inactive).

Q: What about the GI50 [27] of the same molecule?
A: The GI50 was 14.8 µM (inactive).

Q: And the GI50 [28]?
A: The GI50 was 19.3 µM (inactive).

Q: And the GI50 [29]?
A: Its GI50 is 14.8 µM (inactive).

Q: And the GI50 [30]?
A: The GI50 was 16.7 µM (inactive).

Q: And the GI50 [31]?
A: Its GI50 is 16.3 µM (inactive).

Q: And the GI50 [32]?
A: Its GI50 is 33.9 µM (inactive).

Q: What about the GI50 [33] of the same molecule?
A: Its GI50 is 32 µM.

Q: What about the GI50 [34] of the same molecule?
A: The GI50 was 28.2 µM (inactive).

Q: What about the GI50 [35] of the same molecule?
A: Its GI50 is 20.3 µM (inactive).

Q: And the GI50 [36]?
A: The GI50 was 33.1 µM (inactive).

Q: What about the GI50 [37] of the same molecule?
A: The GI50 was 14.5 µM (inactive).

Q: And the GI50 [38]?
A: Its GI50 is 20.5 µM (inactive).

Q: And the GI50 [39]?
A: The GI50 was 30.4 µM (inactive).

Q: And the GI50 [40]?
A: The GI50 was 32.7 µM (inactive).

Q: What about the GI50 [41] of the same molecule?
A: Its GI50 is 17.3 µM (inactive).

Q: What about the GI50 [42] of the same molecule?
A: Its GI50 is 22.8 µM (inactive).

Q: And the GI50 [43]?
A: Its GI50 is 18.2 µM (inactive).

Q: And the GI50 [44]?
A: Its GI50 is 26.5 µM (inactive).

Q: And the GI50 [45]?
A: Its GI50 is 23.2 µM (inactive).

Q: What about the GI50 [46] of the same molecule?
A: Its GI50 is 18.2 µM (inactive).

Q: And the GI50 [47]?
A: Its GI50 is 31.8 µM (inactive).

Q: What about the GI50 [48] of the same molecule?
A: Its GI50 is 21.1 µM (inactive).

Q: And the GI50 [49]?
A: The GI50 was 11.2 µM (inactive).

Q: What about the GI50 [50] of the same molecule?
A: The GI50 was 37.9 µM (inactive).

Q: And the GI50 [51]?
A: Its GI50 is 25.1 µM (inactive).

Q: What about the GI50 [52] of the same molecule?
A: The GI50 was 22.9 µM (inactive).

Q: What about the GI50 [53] of the same molecule?
A: Its GI50 is 17.7 µM (inactive).

Q: And the GI50 [54]?
A: The GI50 was 12.3 µM (inactive).

Q: What about the GI50 [55] of the same molecule?
A: Its GI50 is 29.9 µM (inactive).

Q: And the GI50 [56]?
A: Its GI50 is 15.3 µM (inactive).

Q: And the GI50 [57]?
A: The GI50 was 17.2 µM (inactive).

Q: Which GI50 [1] does the source give for `COc1cc(/C=C2\N=C(c3ccccc3)N(c3nc4cc(C)c(C)cc4s3)C2=O)ccc1O` here?
A: Its GI50 is 44.8 µM (inactive).

Q: What about the GI50 [2] of the same molecule?
A: The GI50 was 66.1 µM (inactive).

Q: What about the GI50 [3] of the same molecule?
A: The GI50 was 43 µM (inactive).

Q: And the GI50 [58]?
A: The GI50 was 20.5 µM (inactive).

Q: What about the GI50 [4] of the same molecule?
A: The GI50 was 23.7 µM (inactive).

Q: What about the GI50 [5] of the same molecule?
A: The GI50 was 27 µM (inactive).

Q: What about the GI50 [6] of the same molecule?
A: Its GI50 is 15.2 µM (inactive).

Q: And the GI50 [8]?
A: Its GI50 is 28.3 µM (inactive).

Q: And the GI50 [9]?
A: The GI50 was 26.6 µM (inactive).

Q: What about the GI50 [10] of the same molecule?
A: Its GI50 is 74.1 µM (inactive).

Q: And the GI50 [11]?
A: The GI50 was 21.4 µM (inactive).

Q: And the GI50 [12]?
A: Its GI50 is 21.3 µM (inactive).

Q: What about the GI50 [13] of the same molecule?
A: The GI50 was 66.8 µM (inactive).

Q: What about the GI50 [14] of the same molecule?
A: The GI50 was 27.4 µM (inactive).

Q: And the GI50 [15]?
A: Its GI50 is 36.6 µM (inactive).

Q: What about the GI50 [16] of the same molecule?
A: Its GI50 is 40.1 µM (inactive).

Q: And the GI50 [18]?
A: The GI50 was 20.7 µM (inactive).

Q: And the GI50 [19]?
A: The GI50 was 11.2 µM (inactive).

Q: And the GI50 [20]?
A: The GI50 was 47.4 µM (inactive).

Q: What about the GI50 [22] of the same molecule?
A: Its GI50 is 20.4 µM (inactive).

Q: What about the GI50 [23] of the same molecule?
A: Its GI50 is 24.9 µM (inactive).

Q: And the GI50 [24]?
A: The GI50 was 35.5 µM (inactive).

Q: What about the GI50 [25] of the same molecule?
A: Its GI50 is 30.5 µM (inactive).

Q: And the GI50 [26]?
A: The GI50 was 40.7 µM (inactive).

Q: And the GI50 [27]?
A: The GI50 was 18.7 µM (inactive).

Q: What about the GI50 [28] of the same molecule?
A: Its GI50 is 17.8 µM (inactive).

Q: And the GI50 [29]?
A: Its GI50 is 19.3 µM (inactive).

Q: And the GI50 [59]?
A: The GI50 was 19.9 µM (inactive).

Q: And the GI50 [30]?
A: Its GI50 is 44.1 µM (inactive).

Q: And the GI50 [32]?
A: The GI50 was 61.7 µM (inactive).

Q: What about the GI50 [33] of the same molecule?
A: Its GI50 is 45.6 µM.

Q: What about the GI50 [34] of the same molecule?
A: The GI50 was 29.4 µM (inactive).

Q: What about the GI50 [35] of the same molecule?
A: Its GI50 is 35.3 µM (inactive).

Q: What about the GI50 [36] of the same molecule?
A: The GI50 was 46.3 µM (inactive).

Q: And the GI50 [37]?
A: The GI50 was 79.4 µM (inactive).

Q: What about the GI50 [38] of the same molecule?
A: Its GI50 is 20.8 µM (inactive).

Q: And the GI50 [39]?
A: The GI50 was 40.6 µM (inactive).

Q: And the GI50 [40]?
A: The GI50 was 30.8 µM (inactive).

Q: And the GI50 [41]?
A: The GI50 was 30.8 µM (inactive).

Q: And the GI50 [42]?
A: The GI50 was 31.1 µM (inactive).

Q: And the GI50 [43]?
A: Its GI50 is > 100 µM (inactive).

Q: What about the GI50 [44] of the same molecule?
A: Its GI50 is 30.3 µM (inactive).

Q: And the GI50 [45]?
A: The GI50 was 2.75 µM (inactive).

Q: And the GI50 [46]?
A: Its GI50 is 12.6 µM (inactive).

Q: And the GI50 [47]?
A: The GI50 was 47.4 µM (inactive).

Q: What about the GI50 [49] of the same molecule?
A: The GI50 was 40.3 µM (inactive).

Q: And the GI50 [50]?
A: Its GI50 is 23.3 µM (inactive).

Q: What about the GI50 [51] of the same molecule?
A: The GI50 was 42.3 µM (inactive).

Q: What about the GI50 [52] of the same molecule?
A: Its GI50 is 25.8 µM (inactive).

Q: And the GI50 [53]?
A: The GI50 was 71.3 µM (inactive).

Q: And the GI50 [54]?
A: The GI50 was 21.9 µM (inactive).

Q: What about the GI50 [55] of the same molecule?
A: The GI50 was 74 µM (inactive).

Q: What about the GI50 [56] of the same molecule?
A: Its GI50 is 31.3 µM (inactive).

Q: What about the GI50 [57] of the same molecule?
A: The GI50 was 26.3 µM (inactive).
